# Like-named read-outs stand apart in the source and are kept apart here.
# Assays:
# [1] = Two-week intravenous comparative toxicity study in mice; format: in vivo, normal female BALB/c mice
# Protocol: In order to assess the sub-chronic intravenous toxicity of epothilone B, a non-GLP two-week i.v. toxicity study in non-tumor bearing, normal female BALB/c mice is conducted, involving analysis of mortality, clinical signs, body weight, food consumption, hematology, clinical biochemistry, urinalysis, and organ weights as well as macro and microscopic examinations. The study is based on two different dosing regimens of epothilone B of 3 mg/kg and 10 mg/kg, respectively, administered on days 1 and 8 (8 animals per group). Half of the animals are killed on day 15 (main group) and necropsy is performed. For the other half (recovery group) a recovery period of 5 weeks is allowed after administration of the second dose before sacrifice and subsequent necropsy on day 43.
# [2] = test system: A549 non-small cell lung tumors; format: in vivo, outbred athymic (nu/nu) mice; settings: for % T/C / Dead/Total: extended observation, day 48
# Protocol: Materials and methods pertaining to the human tumor xenograft model are as previously described.
# Measurements are taken for an additional 2 weeks after completion of the regular 3 weeks experiments, to evaluate reversibility of drug-induced body weight loss, and sustainability of antitumor effects.
# Treatments are started on day 13 post implantation (10 million cells/animal). Epothilone B is administered i.v. once weekly for 3 weeks (days 13, 20, and 27) at doses of 1, 2, 3, and 3.5 mg/kg. […] Final data are recorded on day 34. A single asterisk (*) indicates p<0.05 using a one-tailed Student's t-Test, and a double asterisk (**) indicates p<0.05 using a Dunnett's or Dunn's test.
# Measurements for the experiment described in Table 1 are extended by additional two weeks. Final data are recorded on day 48. A single asterisk (*) indicates p<0.05 using a one-tailed Student's t-Test, and a double asterisk (**) indicates p<0.05 using a Dunneff's or Dunn's test.
# [3] = 3 mg/kg i.v. on days 1 and 8, day 15
# [4] = 10 mg/kg i.v. on days 1 and 8, day 15
# [5] = 1 mg/kg i.v. once weekly for 3 weeks
# [6] = 2 mg/kg i.v. once weekly for 3 weeks
# [7] = 3 mg/kg i.v. once weekly for 3 weeks
# [8] = 3.5 mg/kg i.v. once weekly for 3 weeks
smiles,measurement,setting,value
C/C(=C\c1csc(C)n1)[C@@H]1C[C@@H]2O[C@]2(C)CCC[C@H](C)[C@H](O)[C@@H](C)C(=O)C(C)(C)[C@@H](O)CC(=O)O1 [epothilone B],Mortalities throughout the treatment period (days 1-14),[1]; 3 mg/kg i.v. on days 1 and 8,No mortalities
same,Atrophy of the thymus (microscopic),[1]; [3],moderate
same,Hematology: leukocytes,[1]; [3],reduction in the number of leukocytes
same,"Sternal bone marrow, microscopic",[1]; [3],minimal to slight erythroid and myeloid atrophy
same,Survival of the recovery group,"[1]; 3 mg/kg i.v. on days 1 and 8, to day 43",all animals of the recovery group survive until the end of the study
same,Body weight,"[1]; 3 mg/kg i.v. on days 1 and 8, treatment period",body weight loss at the 3 mg/kg dose is only apparent in the second week
same,Mortalities throughout the treatment period (days 1-14),[1]; 10 mg/kg i.v. on days 1 and 8,No mortalities
same,Atrophy of the thymus (microscopic),[1]; [4],marked
same,"Spleen, microscopic",[1]; [4],minimal lymphoid atrophy
same,"Sternal bone marrow, microscopic",[1]; [4],minimal to slight myeloid hypoplasia
same,Hematology: leukocytes,"[1]; 10 mg/kg i.v. on days 1 and 8, day 15, effect more pronounced",reduction in the number of leukocytes
same,Body weight,"[1]; 10 mg/kg i.v. on days 1 and 8, first and second week",Body weight loss is observed for all animals
same,"Intestinal mucosa (small and large intestine), microscopic","[1]; both dose levels (3 and 10 mg/kg), day 15",Minimal single cell necrosis
same,% T/C,[2]; [5],72%
same,Dead/Total,[2]; [5],0/8
same,% T/C,[2]; [6],49%
same,Dead/Total,[2]; [6],0/8
same,% T/C,[2]; [7],16%
same,Dead/Total,[2]; [7],0/8
same,% T/C,[2]; [8],12%
same,Dead/Total,[2]; [8],0/8
same,body weight loss,"[2]; 3.5 and 3 mg/kg i.v. once weekly, reversible",approximately 15%

# — patent publication US20040024033A1 (priority 1998, published 2004)
